Each molecule was assayed against Dual specificity tyrosine-phosphorylation-regulated kinase 1A (Homo sapiens, UniProt Q13627) (assay: DYRK1A Inhibition Assay).
Protocol: 1. Add 5 μL enzyme & substrate mixture to each well in Column 2-23 and A24-H24 wells of the 384-well assay plate;2. Add 5 μL 0% Phosphorylation control to A1-H1 and I24-P24 wells of the assay plate;3. Add 5 μL 100% Phosphorylation control to I1-P1 wells of the assay plate;4. Spin the assay plate (1000 rpm, 1 minute @23° C.);5. Incubate enzyme with compounds for 15 minutes at 23° C.;6. Add 5 μL ATP solution to each well of the assay plate;7. Spin the plate (1000 rpm, 1 minute @23° C.);8. Incubate the assay plate for 90 minutes at 23° C.;9. Add 10 μL Development reagent A to each well of the assay plate;10. Centrifuge the plate at 1000 rpm about 15 seconds and seal a film over assay plate. Incubate the assay plate for 30 minutes at 23° C.11. Read assay plates on Envision (see Tables A-D).

Structure (SMILES) | IC50
COc1ccc(-c2ccc3c4c([nH]c(=O)c3c2)CN(C)CC4)cc1OC [US20250066349, Compound IV.24] | > 5000 nM
Cc1ncc(-c2ccc3cnc4[nH]cc(C5CCCCC5)c4c3c2)s1 [US20250066349, Compound I.6] | < 10 nM
CN1CCC(C(=O)Nc2ncc(-c3ccc4oncc4c3)s2)CC1 [US20250066349, Compound III.4] | < 50 nM
CN1CCc2c([nH]c(=O)c3cc(C4=CCOCC4)ccc23)C1 [US20250066349, Compound IV.23] | > 5000 nM
N#Cc1ccc2c(c1)ncc1c(Oc3cccc(Cl)c3)cncc12 [US20250066349, Compound IV.21] | > 5000 nM
CC(=O)N1CCc2c(cnc3[nH]cc(C4CCC4)c23)C1 [US20250066349, Compound IV.1] | < 500 nM
Cn1cc(-c2ccc3cnc4[nH]cc(C5CCC(C(=O)O)CC5)c4c3c2)cn1 (configuration not stated) [US20250066349, Compound I.24] | < 10 nM
Cn1cc(-c2ccc3c(-c4ccc5cnsc5c4)cnn3c2)ccc1=O [US20250066349, Compound II.2] | < 10 nM
COC(=O)c1ccc2c(cnc3[nH]cc(-c4ccc(F)cc4)c32)c1 [US20250066349, Compound I.4] | > 1000 nM
COC1CCC(c2c[nH]c3ncc4ccc(-c5cnn(C)c5)cc4c23)CC1 (configuration not stated) [US20250066349, Compound I.13] | < 10 nM
CN(C)CCOc1ccc2c(c1)[nH]c(=O)c1cc(-c3ccncc3)cn12 [US20250066349, Compound IV.18] | < 500 nM
COC1CC=C(c2n[nH]c3ncc4ccc(-c5cnn(C)c5)cc4c23)CC1 (configuration not stated) [US20250066349, Compound I.8] | < 10 nM
Cn1cc(-c2ccc3c(-c4ccc5cnn(C)c5c4)cnn3c2)ccc1=O [US20250066349, Compound II.1] | < 10 nM
Cn1cc(-c2ccc3cnc4[nH]cc(C5CC(O)C5)c4c3c2)cn1 (configuration not stated) [US20250066349, Compound I.18] | < 10 nM
Cn1cc(-c2ccc3cnc4[nH]cc(C5CCC5)c4c3c2)cn1 [US20250066349, Compound I.1] | < 10 nM
Cc1c(C2CCOCC2)[nH]c2ncc3ccc(-c4cnn(C)c4)cc3c12 [US20250066349, Compound I.51] | < 10 nM
Cn1ncc2c3ccc(C#N)cc3ncc21 [US20250066349, Compound IV.14] | < 500 nM
CN1CCc2c([nH]c(=O)c3cc(C4CCOCC4)ccc23)C1 [US20250066349, Compound IV.22] | > 5000 nM
COC1CC(c2c[nH]c3ncc4ccc(-c5cnn(C)c5)cc4c23)C1 (configuration not stated) [US20250066349, Compound I.23] | < 10 nM
CC(=O)N1CCc2c(cnc3[nH]cc(-c4ccc5c(c4)OCO5)c23)C1 [US20250066349, Compound IV.6] | < 500 nM
CN1CCC(C(=O)Nc2ncc(-c3ccc4c(c3)COC4=O)s2)CC1 [US20250066349, Compound III.2] | < 50 nM
Cn1cc(-c2ccc3cnc4[nH]cc(C5CCC(O)CC5)c4c3c2)cn1 (configuration not stated) [US20250066349, Compound I.14] | < 10 nM
